Test results as given in patent US6444809B1, “Therapeutic heterocycles” (Zeneca Limited, priority 1993, dated 2002).
Counter-ions that a name gives are not always drawn.

How the values were obtained:
[1] = system: guinea pig trachea; experiment: Guinea pig assay (Test B), antagonism of agonist (NKA or [β-Ala8]-NKA(4-10)) contraction of tracheal rings; type: cell-based
Experimental: Guinea Pig Assay (Test B)
In the test described below either NKA or [β-Ala^8]-NKA(4-10) is used as an agonist. The chosen agonist is refered to as AG throughout the description.
Male guinea pigs are killed by a sharp blow to the back of the head. The trachea are removed, trimmed of excess tissue and divided into two segments. […] Initial tension placed on each tissue is 1 g, which is maintained throughout a 0.5 to 1.5 hour equilibration period before addition of other drugs. Contractile responses are measured on a Grass polygraph via Grass FT-03 force transducers.
Tissues are challenged repetitively with a single concentration of AG (10 nM) with intervening 30 min periods with washing to allow the tension to return to baseline levels. […] Percent inhibition is determined when a Compound produces a statistically significant (p<0.05) reduction of the contraction and is calculated using the second contractile response as 100%.
Potencies of selected Compounds are evaluated by calculating apparent dissociation constants (KB) for each concentration tested using the standard equation: […]
where dose ratio=antilog[(AG −log molar EC50 without Compound) −(AG−log molar EC50 with Compound)]. The KB values may be converted to the negative logarithms and expressed as −log molar KB (i.e. PKB). […] The EC50 values are converted to the negative logarithms and expressed as −log molar EC50. […]

[2] = target: T1, human NK2 receptor (Homo sapiens, UniProt P21452); experiment: Neurokinin A (NKA) receptor-binding assay (Test A), 3H-NKA binding to MEL cell membranes
T1 construct: expressed in transfected cells
T1 sequence (P21452 1-398): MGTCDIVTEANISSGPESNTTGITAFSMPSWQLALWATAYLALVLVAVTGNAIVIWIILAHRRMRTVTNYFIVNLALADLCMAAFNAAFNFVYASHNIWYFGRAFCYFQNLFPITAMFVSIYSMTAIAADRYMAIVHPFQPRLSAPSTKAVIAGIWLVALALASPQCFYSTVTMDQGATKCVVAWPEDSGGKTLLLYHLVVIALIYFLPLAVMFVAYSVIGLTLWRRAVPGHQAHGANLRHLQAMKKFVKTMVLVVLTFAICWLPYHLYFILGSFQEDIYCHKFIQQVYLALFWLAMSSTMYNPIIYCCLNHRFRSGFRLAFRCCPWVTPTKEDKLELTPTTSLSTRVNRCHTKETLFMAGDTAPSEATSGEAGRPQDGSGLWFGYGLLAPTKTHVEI
Description: Neurokinin A (NKA) Receptor-binding Assay (Test A)
Heterologous protein expression in Mouse Erythroleukemia (MEL) cells uses the human globin locus control region (LCR) (F. Grosveld et al., Cell (1987) 51, 975-985). The cDNAs are inserted between the human beta-globin promoter and the second intron of the human beta-globin gene, and this expression cassette is then placed downstream of the LCR and transfected into MEL cells (M. Needham et al., Nucl. Acids Res. (1992) 20, 997-1003). Human NK2 receptor cDNA (A. Graham et al., Biochem. Biophys. Res. Commun. (1991) 177, 8-16) was isolated from human lung RNA by polymerase chain reaction and DNA sequenced. […] These were annealed and ligated to the hNK2R fragment by standard methods. Following cleavage with Hind III, the resulting fragment was cloned into the Hind III and Bam HI sites in the polylinker of the shuttle vector pMEG3. […] Directly after transfection, cells were diluted in culture medium to 10^4 and 10^5 cell per mL and 1 mL aliquots transferred to each well of a 24-well plate.
G418 was added to a concentration of 1 mg/mL 24 hours after the transfection to select for stable transfectants. […]
Nonspecific binding is routinely defined with 1 μM NKA. […] The filters are deposited in scintillation vials and read in a Beckman LS 6000LL Scintillation Counter.

Question: For `CN(CC(CCN1CCC(N2CCOC2=O)CC1)c1ccc(Cl)c(Cl)c1)C(=O)c1ccccc1.Cl` (stereo not shown) [Example 1, N-[2-(3,4-Dichlorophenyl)-4-[4-(2-oxo-1,3-oxazolidin-3-yl)piperidino]butyl]-N-methylbenzamide hydrochoride], which “NK2 antagonist activity in the functional assay (Test B)” value ([1]; result in words) is on record?
Answer: Its value is “potent NK2 antagonist”.

Question: What about the “NK2 antagonist activity in the in vitro screen (Test A)” value ([2]; result in words) of the same compound?
Answer: Its value is “potent NK2 antagonist”.

Question: How did the Kb ([1]; Cavia porcellus, Test B, -log molar apparent dissociation constant KB) turn out when `CN(C[C@@H](CCN1CCC(N2CCCOC2=O)CC1)c1ccc(Cl)c(Cl)c1)C(=O)c1ccccc1` [Example 2, (S)-N-[2-(3,4-Dichlorophenyl)-4-(2-oxoperhydro-1,3-oxa-zin-3-yl)piperidino]butyl]-N-methylbenzamide hydrochloride] was run?
Answer: Its Kb is 2 nM.

Question: And the Ki ([2]; Test A, typically found)?
Answer: Its Ki is 4.1 nM.
